Values joined by “and” are separate entries in the source; they are usually repeats but may differ in a detail not shown here. Equal values may be shown once. Where no end group is shown, it is not given here.
Legend:
[1] = test system: C. albicans cell membrane; assay: Membrane depolarization assay with DiSC3(5) dye; format: cell-based, Candida albicans
[2] = Vesicle leakage assay, PG; format: biochemical; settings: for relative change in leakage compared to PC-LUVs: P ≤ 0.05; for % Leakage: PG-LUVs, 50 μM lipid, ANTS-DPX, HEPES pH 7.4, 30 min, 37°C, 1% Triton X-100 = 100%, mean ± SD, 2 experiments in duplicates
[3] = Vesicle leakage assay, PG-PE-CL; format: biochemical; settings: PG-PE-CL-LUVs, 50 μM lipid, ANTS-DPX, HEPES pH 7.4, 30 min, 37°C, 1% Triton X-100 = 100%, mean ± SD, 2 experiments in duplicates
[4] = Vesicle leakage assay, PC; format: biochemical; settings: PC-LUVs, 50 μM lipid, ANTS-DPX, HEPES pH 7.4, 30 min, 37°C, 1% Triton X-100 = 100%, mean ± SD, 2 experiments in duplicates
[5] = Vesicle leakage assay, PC-sphingomyelin; format: biochemical; settings: for relative change in leakage compared to PC-LUVs: P ≤ 0.05; for % Leakage: PC-sphingomyelin-LUVs, 50 μM lipid, ANTS-DPX, HEPES pH 7.4, 30 min, 37°C, 1% Triton X-100 = 100%, mean ± SD, 2 experiments in duplicates
[6] = Vesicle leakage assay, PC-ceramide; format: biochemical; settings: for % Leakage: PC-ceramide-LUVs, 50 μM lipid, ANTS-DPX, HEPES pH 7.4, 30 min, 37°C, 1% Triton X-100 = 100%, mean ± SD, 2 experiments in duplicates
[7] = Vesicle leakage assay, PC-PI; format: biochemical; settings: for relative change in leakage compared to PC-LUVs: P ≤ 0.05; for % Leakage: PC-PI-LUVs, 50 μM lipid, ANTS-DPX, HEPES pH 7.4, 30 min, 37°C, 1% Triton X-100 = 100%, mean ± SD, 2 experiments in duplicates
[8] = Vesicle leakage assay, PC-PE; format: biochemical; settings: for relative change in leakage compared to PC-LUVs: P ≤ 0.05; for % Leakage: PC-PE-LUVs, 50 μM lipid, ANTS-DPX, HEPES pH 7.4, 30 min, 37°C, 1% Triton X-100 = 100%, mean ± SD, 2 experiments in duplicates
[9] = Vesicle leakage assay, PC-PS; format: biochemical; settings: for % Leakage: PC-PS-LUVs, 50 μM lipid, ANTS-DPX, HEPES pH 7.4, 30 min, 37°C, 1% Triton X-100 = 100%, mean ± SD, 2 experiments in duplicates
[10] = Vesicle leakage assay, PC-ergosterol; format: biochemical; settings: for relative change in leakage compared to PC-LUVs: P ≤ 0.05; for % Leakage: PC-ergosterol-LUVs, 50 μM lipid, ANTS-DPX, HEPES pH 7.4, 30 min, 37°C, 1% Triton X-100 = 100%, mean ± SD, 2 experiments in duplicates
[11] = Vesicle leakage assay, PC-PE-ergosterol; format: biochemical; settings: for relative change in leakage compared to PC-LUVs: P ≤ 0.05; for % Leakage: PC-PE-ergosterol-LUVs, 50 μM lipid, ANTS-DPX, HEPES pH 7.4, 30 min, 37°C, 1% Triton X-100 = 100%, mean ± SD, 2 experiments in duplicates
[12] = Vesicle leakage assay, PC-PS-ergosterol; format: biochemical; settings: for relative change in leakage compared to PC-LUVs: P ≤ 0.05; for % Leakage: PC-PS-ergosterol-LUVs, 50 μM lipid, ANTS-DPX, HEPES pH 7.4, 30 min, 37°C, 1% Triton X-100 = 100%, mean ± SD, 2 experiments in duplicates
[13] = Vesicle leakage assay, PC-CL; format: biochemical; settings: for relative change in leakage compared to PC-LUVs: P ≤ 0.05; for % Leakage: PC-CL-LUVs, 50 μM lipid, ANTS-DPX, HEPES pH 7.4, 30 min, 37°C, 1% Triton X-100 = 100%, mean ± SD, 2 experiments in duplicates
[14] = cited from earlier work
[15] = test system: mammalian cells; primary human skin cells and three-dimensional skin epidermal models; settings: cited from earlier work
C. albicans cells = assay: Ultrastructural analysis by electron microscopy of cryo-fixed cells; settings: 30 μM, 60 min, 30°C

KKLLPIVKNLLKSLL-NH2 (C-terminus assumed) [TB_KKG6K]
time to maximum DiSC3(5) fluorescence intensity ([1]; 1 μM peptide): 15 min
time to maximum DiSC3(5) fluorescence intensity ([1]; 2 μM peptide): 25 min
membrane depolarization, DiSC3(5) fluorescence intensity ([1]; 1 × 10^6 cells/mL, 30°C, 60 min, TB analog 0.5, 1, 2 μM, Triton X-100 1% (wt/vol), PCγ^C-terminal 32 μM): induced membrane depolarization in a concentration- and time-dependent manner
relative change in leakage compared to PC-LUVs ([2]; 4 μM peptide): +30%
relative change in leakage compared to PC-LUVs ([2]; 8 μM peptide): +20%
% Leakage ([2]; 2 μM peptide (lipid:peptide 25:1)): 56% ± 4% and 56.0 ± 4.0%
% Leakage ([2]; 4 μM peptide (12:1)): 57.7 ± 3.9%
% Leakage ([2]; 8 μM peptide (6:1)): 61% ± 4% and 61.1 ± 4.1%
% Leakage ([3]; 2 μM peptide (25:1)): 5.3 ± 1.3%
% Leakage ([3]; 4 μM peptide (12:1)): 40.2 ± 0.9%
% Leakage ([3]; 8 μM peptide (6:1)): 61% ± 3% and 61.5 ± 2.7%
% Leakage ([4]; 2 μM peptide (25:1)): 33.8 ± 3.0%
% Leakage ([4]; 4 μM peptide (12:1)): 40.6 ± 3.2%
% Leakage ([4]; 8 μM peptide (6:1)): 49.2 ± 4.5%
relative change in leakage compared to PC-LUVs ([5]; 2 μM peptide): −44%
relative change in leakage compared to PC-LUVs ([5]; 4 μM peptide): −34%
relative change in leakage compared to PC-LUVs ([5]; 8 μM peptide): −31%
% Leakage ([5]; 2 μM peptide (25:1)): 18.8 ± 3.1%
% Leakage ([5]; 4 μM peptide (12:1)): 26.5 ± 1.0%
% Leakage ([5]; 8 μM peptide (6:1)): 33.9 ± 2.0%
relative change in leakage compared to PC-LUVs ([6]; 2 μM peptide, P ≤ 0.05): −47%
% Leakage ([6]; 2 μM peptide (25:1)): 17.9 ± 1.8%
% Leakage ([6]; 4 μM peptide (12:1)): 39.9 ± 2.4%
% Leakage ([6]; 8 μM peptide (6:1)): 44.8 ± 1.9%
relative change in leakage compared to PC-LUVs ([7]; 4 μM peptide): +29%
relative change in leakage compared to PC-LUVs ([7]; 8 μM peptide): +15%
% Leakage ([7]; 2 μM peptide (25:1)): 37.7 ± 3.9%
% Leakage ([7]; 4 μM peptide (12:1)): 52.5 ± 2.4%
% Leakage ([7]; 8 μM peptide (6:1)): 56.5 ± 2.9%
relative change in leakage compared to PC-LUVs ([8]; 2 μM peptide): −32%
relative change in leakage compared to PC-LUVs ([8]; 4 μM peptide): −22%
relative change in leakage compared to PC-LUVs ([8]; 8 μM peptide): −19%
% Leakage ([8]; 2 μM peptide (25:1)): 22.8 ± 1.3%
% Leakage ([8]; 4 μM peptide (12:1)): 31.5 ± 2.1%
% Leakage ([8]; 8 μM peptide (6:1)): 40.0 ± 3.1%
relative change in leakage compared to PC-LUVs ([9]; 2 μM peptide, P ≤ 0.05): −33%
% Leakage ([9]; 2 μM peptide (25:1)): 22.6 ± 3.3%
% Leakage ([9]; 4 μM peptide (12:1)): 38.1 ± 10.5%
% Leakage ([9]; 8 μM peptide (6:1)): 47.4 ± 15.1%
relative change in leakage compared to PC-LUVs ([10]; 2 μM peptide): −71%
relative change in leakage compared to PC-LUVs ([10]; 4 μM peptide): −68%
relative change in leakage compared to PC-LUVs ([10]; 8 μM peptide): −66%
% Leakage ([10]; 2 μM peptide (25:1)): 9.8 ± 1.5%
% Leakage ([10]; 4 μM peptide (12:1)): 13.0 ± 0.6%
% Leakage ([10]; 8 μM peptide (6:1)): 16.9 ± 2.0%
relative change in leakage compared to PC-LUVs ([11]; 2 μM peptide): −56%
relative change in leakage compared to PC-LUVs ([11]; 4 μM peptide): −58%
relative change in leakage compared to PC-LUVs ([11]; 8 μM peptide): −68%
% Leakage ([11]; 2 μM peptide (25:1)): 14.8 ± 0.8%
% Leakage ([11]; 4 μM peptide (12:1)): 17.1 ± 6.0%
% Leakage ([11]; 8 μM peptide (6:1)): 15.8 ± 1.3%
relative change in leakage compared to PC-LUVs ([12]; 2 μM peptide): −36%
relative change in leakage compared to PC-LUVs ([12]; 4 μM peptide): −26%
% Leakage ([12]; 2 μM peptide (25:1)): 21.8 ± 3.5%
% Leakage ([12]; 4 μM peptide (12:1)): 30.1 ± 4.6%
% Leakage ([12]; 8 μM peptide (6:1)): 46.3 ± 4.2%
relative change in leakage compared to PC-LUVs ([13]; 2 μM peptide): −93%
relative change in leakage compared to PC-LUVs ([13]; 4 μM peptide): −75%
relative change in leakage compared to PC-LUVs ([13]; 8 μM peptide): +20%
% Leakage ([13]; 2 μM peptide (25:1)): 2.2 ± 0.8%
% Leakage ([13]; 4 μM peptide (12:1)): 9.9 ± 0.7%
% Leakage ([13]; 8 μM peptide (6:1)): 59.0 ± 5.8%
hydrophobicity (hydrophobic amino acids) [14]: 53%
positive net charge ([14]; pH 7): +3.9
hemolysis and cytotoxicity to mammalian cells in vitro [15]: neither hemolytic nor cytotoxic
tolerance by primary human skin cells and three-dimensional skin epidermal models in vitro [15]: well tolerated
cell lysis (C. albicans cells): indications of cell lysis were not observed
ultrastructural damage (C. albicans cells): severe ultrastructural damage to the vast majority of cells
